Assay results taken from PubChem BioAssay AID248 (DTP/NCI, 2004).
Values joined by “and” are separate entries in the source; they are usually repeats but may differ in a detail not shown here. Equal values may be shown once. Toxic doses and inconclusive results are not listed. No stated cut-off is given here; in the data, active means T/C of 150% or more; inactive means T/C below 125%.

System: L1210 leukemia ip in BDF1 mice, survival T/C
Assay: NCI In Vivo Anticancer Drug Screen. Data for tumor model L1210 Leukemia (intraperitoneal) in B6D2F1 (BDF1) mice
Details: higher = longer survival
In short: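 Ratio derived from survival: compound-dosed mice over vehicle-dosed mice, all bearing a transplantable tumor.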

[1] = endpoint: mean survival time, dose: 100.0 mg/kg/injection, schedule: Q01DX001 (ip), vehicle: carboxymethylcellulose (CMC)
[2] = endpoint: mean survival time, dose: 100.0 mg/kg/injection, schedule: Q01DX001 (ip), vehicle: saline
[3] = endpoint: mean survival time, dose: 200.0 mg/kg/injection, schedule: Q01DX001 (ip), vehicle: carboxymethylcellulose (CMC)
[4] = endpoint: mean survival time, dose: 400.0 mg/kg/injection, schedule: Q01DX001 (ip), vehicle: carboxymethylcellulose (CMC)
[5] = endpoint: mean survival time, dose: 400.0 mg/kg/injection, schedule: Q01DX001 (ip), vehicle: saline
[6] = endpoint: mean survival time, dose: 100.0 mg/kg/injection, schedule: Q04DX003 (ip), vehicle: saline
[7] = endpoint: mean survival time, dose: 200.0 mg/kg/injection, schedule: Q04DX003 (ip), vehicle: saline
[8] = endpoint: mean survival time, dose: 400.0 mg/kg/injection, schedule: Q04DX003 (ip), vehicle: saline
[9] = endpoint: mean survival time, dose: 5.0 mg/kg/injection, schedule: Q01DX001 (ip), vehicle: saline
[10] = endpoint: mean survival time, dose: 100.0 mg/kg/injection, schedule: Q01DX009 (ip), vehicle: saline with Tween-80
[11] = endpoint: mean survival time, dose: 100.0 mg/kg/injection, schedule: Q04DX003 (ip), vehicle: saline with Tween-80
[12] = endpoint: mean survival time, dose: 200.0 mg/kg/injection, schedule: Q04DX003 (ip), vehicle: saline with Tween-80
[13] = endpoint: mean survival time, dose: 400.0 mg/kg/injection, schedule: Q04DX003 (ip), vehicle: saline with Tween-80

Measured: T/C

CSCS(=O)C[C@H](CO)NC(=O)/C=C/c1c(C)[nH]c(=O)[nH]c1=O (stereo partly specified)
inactive: endpoint: mean survival time, dose: 0.38 mg/kg/injection, schedule: Q01DX001 (ip), vehicle: saline 105 % of control | endpoint: mean survival time, dose: 0.39 mg/kg/injection, schedule: Q04DX002 (ip), vehicle: Klucel (hydroxypropylcellulose) (HPC) 96 % of control | endpoint: mean survival time, dose: 0.75 mg/kg/injection, schedule: Q01DX001 (ip), vehicle: saline 103 % of control | endpoint: mean survival time, dose: 0.75 mg/kg/injection, schedule: Q01DX Z (ip), vehicle: carboxymethylcellulose (CMC) 86 % of control | endpoint: mean survival time, dose: 0.78 mg/kg/injection, schedule: Q04DX002 (ip), vehicle: Klucel (hydroxypropylcellulose) (HPC) 96 % of control | endpoint: mean survival time, dose: 1.1 mg/kg/injection, schedule: Q01DX001 (ip), vehicle: carboxymethylcellulose (CMC) 106 % of control | endpoint: mean survival time, dose: 1.5 mg/kg/injection, schedule: Q01DX001 (ip), vehicle: saline 116 % of control | endpoint: mean survival time, dose: 1.56 mg/kg/injection, schedule: Q04DX002 (ip), vehicle: Klucel (hydroxypropylcellulose) (HPC) 110 % of control | endpoint: mean survival time, dose: 1.7 mg/kg/injection, schedule: Q01DX001 (ip), vehicle: carboxymethylcellulose (CMC) 112 % of control | endpoint: mean survival time, dose: 2.6 mg/kg/injection, schedule: Q01DX001 (ip), vehicle: carboxymethylcellulose (CMC) 112 % of control | endpoint: mean survival time, dose: 3.0 mg/kg/injection, schedule: Q01DX001 (ip), vehicle: saline 111 % of control | endpoint: mean survival time, dose: 3.13 mg/kg/injection, schedule: Q04DX002 (ip), vehicle: Klucel (hydroxypropylcellulose) (HPC) 104 % of control | endpoint: median survival time, dose: 4.0 mg/kg/injection, schedule: Q04DX003 (ip), vehicle: saline 121 % of control

C=C(C)C1C2OC(=O)C1C1(O)CC3OC34C(=O)OC2C14C (stereo unspecified)
inactive: endpoint: mean survival time, dose: 1.25 mg/kg/injection, schedule: Q01DX001 (ip), vehicle: other 109 % of control | endpoint: mean survival time, dose: 2.5 mg/kg/injection, schedule: Q01DX001 (ip), vehicle: other 101 % of control

O=C(OC1COC(OC(=O)c2ccccc2)C(OC(=O)c2ccccc2)C1OC(=O)c1ccccc1)c1ccccc1 (stereo unspecified)
inactive: endpoint: mean survival time, dose: 50.0 mg/kg/injection, schedule: Q01DX001 (ip), vehicle: carboxymethylcellulose (CMC) 96 % of control | endpoint: mean survival time, dose: 100.0 mg/kg/injection, schedule: Q01DX001 (ip), vehicle: Klucel (hydroxypropylcellulose) (HPC) 102 % of control | endpoint: mean survival time, dose: 100.0 mg/kg/injection, schedule: Q01DX001 (ip), vehicle: acetone 92 % of control | [1] 102 % of control and 103 % of control | [2] 90 % of control | endpoint: mean survival time, dose: 200.0 mg/kg/injection, schedule: Q01DX001 (ip), vehicle: Klucel (hydroxypropylcellulose) (HPC) 102 % of control | endpoint: mean survival time, dose: 200.0 mg/kg/injection, schedule: Q01DX001 (ip), vehicle: acetone 88 % of control | [3] 94 % of control and 91 % of control | endpoint: mean survival time, dose: 400.0 mg/kg/injection, schedule: Q01DX001 (ip), vehicle: Klucel (hydroxypropylcellulose) (HPC) 109 % of control | endpoint: mean survival time, dose: 400.0 mg/kg/injection, schedule: Q01DX001 (ip), vehicle: acetone 90 % of control | [4] 94 % of control | [5] 95 % of control

Cc1cc(NS(=O)(=O)c2ccc(N)cc2)no1
inactive: endpoint: mean survival time, dose: 100.0 mg/kg/injection, schedule: Q01DX009 (ip), vehicle: saline 97 % of control | [6] 104 % of control | endpoint: mean survival time, dose: 200.0 mg/kg/injection, schedule: Q01DX009 (ip), vehicle: saline 94 % of control | [7] 99 % of control | endpoint: mean survival time, dose: 400.0 mg/kg/injection, schedule: Q01DX009 (ip), vehicle: saline 96 % of control | [8] 114 % of control

COc1ccc2c3c1OC1C(OS(=O)(=O)c4ccc(C)cc4)C=CC4C(C2)N(C)CCC341 (stereo unspecified)
inactive: endpoint: mean survival time, dose: 75.0 mg/kg/injection, schedule: Q01DX001 (ip), vehicle: carboxymethylcellulose (CMC) 100 % of control | endpoint: mean survival time, dose: 75.0 mg/kg/injection, schedule: Q01DX001 (ip), vehicle: saline 101 % of control | endpoint: mean survival time, dose: 150.0 mg/kg/injection, schedule: Q01DX001 (ip), vehicle: carboxymethylcellulose (CMC) 97 % of control | endpoint: mean survival time, dose: 150.0 mg/kg/injection, schedule: Q01DX001 (ip), vehicle: saline 103 % of control | endpoint: mean survival time, dose: 300.0 mg/kg/injection, schedule: Q01DX001 (ip), vehicle: carboxymethylcellulose (CMC) 95 % of control | endpoint: mean survival time, dose: 300.0 mg/kg/injection, schedule: Q01DX001 (ip), vehicle: saline 104 % of control

COc1ccc(NC(=S)Nc2ccccn2)cc1
inactive: endpoint: mean survival time, dose: 100.0 mg/kg/injection, schedule: Q01DX009 (ip), vehicle: other 106 % of control | [6] 101 % of control | endpoint: mean survival time, dose: 200.0 mg/kg/injection, schedule: Q01DX009 (ip), vehicle: other 97 % of control | [7] 87 % of control | endpoint: mean survival time, dose: 400.0 mg/kg/injection, schedule: Q01DX009 (ip), vehicle: other 103 % of control | [8] 98 % of control

CC(NC(=O)NCCCl)c1cccc2ccccc12 (stereo unspecified)
inactive: endpoint: mean survival time, dose: 100.0 mg/kg/injection, schedule: Q04DX003 (ip), vehicle: Klucel (hydroxypropylcellulose) (HPC) 102 % of control | endpoint: mean survival time, dose: 200.0 mg/kg/injection, schedule: Q04DX003 (ip), vehicle: Klucel (hydroxypropylcellulose) (HPC) 103 % of control | endpoint: mean survival time, dose: 400.0 mg/kg/injection, schedule: Q04DX003 (ip), vehicle: Klucel (hydroxypropylcellulose) (HPC) 95 % of control

c1ccc(C[n+]2ccc(-c3cc[n+](Cc4ccccc4)cc3)cc2)cc1
inactive: [9] 109 % of control

CC(C)CCCC(C)C1CCC2C3CC(O)C45CC4CCC5(C)C3CCC12C (stereo unspecified)
inactive: endpoint: mean survival time, dose: 200.0 mg/kg/injection, schedule: Q04DX002 (ip), vehicle: Klucel (hydroxypropylcellulose) (HPC) 89 % of control | endpoint: mean survival time, dose: 400.0 mg/kg/injection, schedule: Q04DX002 (ip), vehicle: Klucel (hydroxypropylcellulose) (HPC) 92 % of control

NC1=NC(=O)/C(=C/c2ccccc2)S1
inactive: [1] 100 % of control | [10] 90 % of control | [3] 89 % of control | endpoint: mean survival time, dose: 200.0 mg/kg/injection, schedule: Q01DX009 (ip), vehicle: saline with Tween-80 91 % of control | [4] 86 % of control

N=C(N)SCC(O)c1ccccc1 (stereo unspecified)
inactive: endpoint: mean survival time, dose: 100.0 mg/kg/injection, schedule: Q01DX009 (ip), vehicle: Klucel (hydroxypropylcellulose) (HPC) 104 % of control | endpoint: mean survival time, dose: 200.0 mg/kg/injection, schedule: Q01DX009 (ip), vehicle: Klucel (hydroxypropylcellulose) (HPC) 95 % of control

O=Cc1ccc(N(c2ccc(C=O)cc2)c2ccc(C=O)cc2)cc1
inactive: [11] 100 % of control | [12] 89 % of control | [13] 92 % of control

[Cl][Sn]([c]1ccccc1)([c]1ccccc1)[c]1ccccc1
inactive: endpoint: mean survival time, dose: 2.5 mg/kg/injection, schedule: Q01DX009 (ip), vehicle: Klucel (hydroxypropylcellulose) (HPC) 89 % of control | [9] 95 % of control | endpoint: mean survival time, dose: 5.0 mg/kg/injection, schedule: Q01DX009 (ip), vehicle: Klucel (hydroxypropylcellulose) (HPC) 97 % of control and 106 % of control | endpoint: mean survival time, dose: 5.0 mg/kg/injection, schedule: Q04DX003 (ip), vehicle: Klucel (hydroxypropylcellulose) (HPC) 95 % of control | endpoint: mean survival time, dose: 10.0 mg/kg/injection, schedule: Q01DX001 (ip), vehicle: saline 101 % of control | endpoint: mean survival time, dose: 10.0 mg/kg/injection, schedule: Q04DX003 (ip), vehicle: Klucel (hydroxypropylcellulose) (HPC) 90 % of control | endpoint: mean survival time, dose: 20.0 mg/kg/injection, schedule: Q01DX001 (ip), vehicle: saline 95 % of control | endpoint: mean survival time, dose: 40.0 mg/kg/injection, schedule: Q01DX001 (ip), vehicle: saline 91 % of control

Cc1ccc(N=Cc2cc(I)cc(I)c2O)cc1.Cc1ccc(N=Cc2cc(I)cc(I)c2O)cc1.[Co]
inactive: [11] 92 % of control | [12] 102 % of control and 91 % of control | [13] 96 % of control and 89 % of control

O=C(NCCBr)Nc1ccc([N+](=O)[O-])cc1
inactive: endpoint: mean survival time, dose: 50.0 mg/kg/injection, schedule: Q01DX009 (ip), vehicle: saline with Tween-80 90 % of control | [10] 87 % of control

CCOC(=O)CN(C)C(=O)OCC
inactive: endpoint: mean survival time, dose: 50.0 mg/kg/injection, schedule: Q01DX001 (ip), vehicle: saline 104 % of control | [2] 101 % of control | endpoint: mean survival time, dose: 200.0 mg/kg/injection, schedule: Q01DX001 (ip), vehicle: saline 117 % of control | [5] 101 % of control

COc1ccc2c(c1)-c1c(ccc(OC)c1O)CC(c1ccccc1)[N+](C)(C)CC2 (stereo unspecified)
inactive: endpoint: mean survival time, dose: 6.25 mg/kg/injection, schedule: Q01DX001 (ip), vehicle: saline 96 % of control | endpoint: mean survival time, dose: 12.5 mg/kg/injection, schedule: Q01DX001 (ip), vehicle: saline 96 % of control | endpoint: mean survival time, dose: 25.0 mg/kg/injection, schedule: Q01DX001 (ip), vehicle: saline 107 % of control
